Assays:
HSCs [1] = assay: Survival of mice under repeated 5FU after polyIC priming (IFN alpha pulse); format: in vivo
Procedure: Wild-type C57B1/6 and IFNAR−/− mice were treated as follows: mice were injected with […] mouse polyIC (Invivogen) twice (polyIC is a double stranded RNA mimetic strongly inducing IFNα/b), the lag time between the two injections being 48 h. PolyIC injections are used in this experiment as IFN alpha “pulse”. Mice that were only treated with 5FU without priming injections of polyIC were used as controls.
5-Fluoro-uracil (5FU) was injected (150 mg/kg, Sigma) at different times after the last polyIC injection: 0 h (same time as last polyIC injection); 24 h, 48 h, 72 h, 5 days and 7 days. The proliferation rate of cells at time of 5FU injection was analyzed by BrdU analysis of KLS cells as described in the above examples. Single 5FU injections were repeated every 7 days. The survival of the mice was monitored for a period of 20 days.

[2] = system: hematopoietic stem cells (HSCs) (lineage-CD117+Sca1+); assay: BrdU uptake (proliferation rate) of KLS hematopoietic stem cells in treated mice; format: in vivo
Procedure: Wild-type C57B1/6 mice were treated with IFNα which was obtained as decribed in the literature (Le Bon et al., 2003, Nat. Immunol. 4(10):1009-15). at 0 h and 24 h, respectively with 10×10^3 U/mouse, and were then treated at 36 h with Bromodeoxyuridine (BrdU) at 360 μg/mouse for cell detection. Mice which were only injected with BrdU were used as control. Bone marrow was then taken from the long bones of hindlegs and prepared by standard procedures (Wilson et al., 2004, Genes & Dev 18; 2747-2763). Bone marrow cells were then stained with a cocktail of conjugated antibodies (Bioscience) against mice lineage markers (CD4, CD8, CD11b, Gr1, Ter119, B220), CD117 (c-kit), Sca1 (Ly-6A/E), CD34, CD135, CD48 or CD150). Cells were then fixed. BrdU uptake was analyzed using the BrdU staining kit (BD Biosciences).
Five and six-color flurorescent-activated cell sorting (FACS) analysis (FITC, PE, PE-Cy5, PE-Cy7, APC, APC-Cy7) were performed using a FACS Canto flow cytometer (Becton Dickinson) as described in the literature (Wilson et al., 2004, above). Data were analyzed using FlowJo (Tree Star, Inc.; Ashland, USA software).
Percentages of BrdU positive KLS-HSCs cells (lineage CD117+Sca1+) were determined as a measurement of the proliferation rate of these cells. The same BrdU analyses were performed on subpopulations of HSCs.

[3] = system: dormant HSCs (KLS CD150+CD48-CD34-); assay: BrdU pulse-chase, label-retaining (dormant) long-term HSCs; format: in vivo, mice
Procedure: After a period of permanent BrdU labeling for 10 days, mice were kept without BrdU for 70 days. 14 days before the analysis, the mice were either treated three times with polylC or with PBS. 10 days later (and 70 days after the last BrdU injection) three HSC populations containing an increasing percentage of dormant HSCs were isolated and analysed for the presence of BrdU+label-retaining cells (LRCs), which represent dormant HSCs.
C57B1/6 mice and IFNAR−/− mice were given BrdU (0.8 mg/ml; Sigma) in the drinking water for 10 days. After this BrdU pulse, mice were left for a chase of 10 weeks. Then, mice were twice injected with IFNα at a concentration of 10×10^3 U/mouse each (48 h gap between the 2 injections) or left untreated. BrdU uptake was then analyzed 10 days after the last IFNα injection. After this BrdU pulse-chase experiment in wild-type mice, about 15% of the long-term HSCs (KLS CD150+CD48−CD34−) are still labeled with BrdU (label retaining cells-LRCs). […] This was not the case with long-term HSCs lacking the IFN-receptor (in IFNAR−/− mice) showing that this effect is indeed mediated by Interferon signaling (FIG. 1D).

HSCs [4] = assay: Mixed bone marrow chimeras (wt / IFNAR-/-), BrdU uptake in LSK cells; format: in vivo, mice; settings: IFNα 10×10^3 U/mouse
Procedure: The different mice were treated with IFNα (10×103 U/mouse) in comparison with untreated wt mice (C) as described in Example 3. FIG. 2B represents the BrdU uptake in wt (CD45.1) and IFNAR−/− (CD45.2) LSK cells in the mixed bone marrow chimeras in response to treatment with IFNα.
To investigate whether HSCs respond directly to IFNα in vivo, mixed bone marrow “chimeras” comprising various ratios of wild-type (wt) and IFNAR−/− (IFNRKO) bone marrow cells were treated with IFNα (10×10^3 U/mouse) in comparison with untreated wt mice (C) (FIG. 2A).

With `O=c1[nH]cc(F)c(=O)[nH]1` [5FU, 5-Fluoro-uracil] the “survival of mice under repeated 5FU treatment without polyIC priming” value (HSCs [1]; 5FU 150 mg/kg every 7 days, 20 days) was “do survive”.
With IFNα the “dose dependence of increase in proliferation” value ([2]; different doses of IFNα (U/g of mouse)) was “dose-dependent”, the “proliferation in subpopulations of HSCs (long-term HSCs, short-term HSCs, MPPs)” value ([2]; wild-type C57B1/6 mice, after IFNα treatment) was “increase in proliferation in all subpopulations of HSCs” and the “proliferation rate of HSCs (percentage of BrdU positive KLS cells)” value ([2]; wild-type C57B1/6 mice, IFNα 10×10^3 U/mouse at 0 h and 24 h, BrdU at 36 h, untreated control 23%) was 63%. For the same compound, the “absolute cell numbers of HSCs” value ([2]; wild-type mice, after IFNα treatment) was “increase in absolute cell numbers”, the “reduction of LRC+ long-term HSCs (activation of dormant HSCs)” value ([3]; IFNAR-/- mice (HSCs lacking the IFN-receptor)) was “not the case” and the “number of LRC+ long-term HSCs (BrdU label retaining cells)” value ([3]; wild-type mice, 2 injections IFNα 10×10^3 U/mouse 48 h apart, analysed 10 days after last injection, untreated about 15% LRC) was “dramatically reduced”. The “activation of HSCs in mixed wt / IFNAR-/- bone marrow chimeras” value (HSCs [4]) was “direct and an indirect activation”.
In the case of polyIC [reference compound], the “increase of HSC proliferation rate (BrdU uptake)” value ([2]; IFNAR-/- mice, polyIC once at 10 μg/g) is reported as “not seen”, the “percentage of BrdU+-LRCs in HSC populations” value ([3]; mice treated three times with polyIC vs PBS, 70 days after last BrdU) is reported as “strongly reduced” and the “effect of polyIC priming on survival under 5FU” value (HSCs [1]; IFNAR-/- mice) is reported as “no effect on the survival”. For the same compound, the “survival of mice (lethality by elimination of all HSCs)” value (HSCs [1]; wild-type C57B1/6, polyIC twice (48 h apart) prior to 5FU 150 mg/kg repeated every 7 days, 20 days monitoring) was “efficient lethality”.

Reference: patent US8329160B2, “Interferon alpha sequential regimen for treating cancers” (HI-Stem, priority 2007, dated 2012)
